Source: ChEMBL document CHEMBL1147955, “Novel pyridyl-fused 3-amino chroman derivatives with dual action at serotonin transporter and 5-HT1A receptor” (Bioorg Med Chem Lett, 2007)

Assays:
[1] = molecular target: Sodium-dependent serotonin transporter (Rattus norvegicus, UniProt P31652); test: Displacement of [3H]paroxetine from 5HT reuptake site of rat cortical 5HTT
[2] = molecular target: T1, 5-hydroxytryptamine receptor 1A (Homo sapiens, UniProt P08908); test: Displacement of [3H]8-OH-DPAT from human 5HT1A receptor expressed in CHO cells; type: cell-based
T1 sequence (P08908 whole entry): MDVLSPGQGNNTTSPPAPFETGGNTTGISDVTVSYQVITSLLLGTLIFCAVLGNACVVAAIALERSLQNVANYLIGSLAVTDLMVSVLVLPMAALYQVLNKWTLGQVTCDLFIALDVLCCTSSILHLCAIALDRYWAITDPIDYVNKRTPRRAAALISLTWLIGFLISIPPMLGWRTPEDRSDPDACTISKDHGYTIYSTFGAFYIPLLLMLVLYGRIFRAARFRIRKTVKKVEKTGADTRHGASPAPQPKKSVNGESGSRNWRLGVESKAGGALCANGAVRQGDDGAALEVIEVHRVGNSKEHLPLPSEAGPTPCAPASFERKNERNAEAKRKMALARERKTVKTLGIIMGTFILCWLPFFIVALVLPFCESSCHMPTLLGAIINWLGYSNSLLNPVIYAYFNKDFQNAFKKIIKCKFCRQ

[3] = molecular target: T2, Adrenergic receptor alpha-1 (Rattus norvegicus, UniProt P15823+P23944+P43140); test: Displacement of [3H]prazosin from adrenergic alpha-1 receptor in rat cortical membranes at 1 uM; type: cell membranes, Membrane
T2 sequence (P15823 whole entry): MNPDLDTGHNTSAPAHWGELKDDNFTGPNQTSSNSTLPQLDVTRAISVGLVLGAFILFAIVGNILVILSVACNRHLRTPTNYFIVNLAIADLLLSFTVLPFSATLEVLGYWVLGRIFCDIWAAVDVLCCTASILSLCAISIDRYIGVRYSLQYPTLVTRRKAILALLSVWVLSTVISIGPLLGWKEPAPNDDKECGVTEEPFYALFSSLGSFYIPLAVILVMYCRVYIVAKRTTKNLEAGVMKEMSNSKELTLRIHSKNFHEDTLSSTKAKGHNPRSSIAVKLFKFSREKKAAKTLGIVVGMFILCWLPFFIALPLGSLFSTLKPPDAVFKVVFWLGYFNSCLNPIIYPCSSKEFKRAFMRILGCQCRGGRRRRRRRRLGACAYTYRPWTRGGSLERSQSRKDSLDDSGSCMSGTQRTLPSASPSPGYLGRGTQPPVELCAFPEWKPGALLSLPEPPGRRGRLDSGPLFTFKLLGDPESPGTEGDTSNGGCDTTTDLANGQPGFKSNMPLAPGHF
T2 sequence (P23944 whole entry): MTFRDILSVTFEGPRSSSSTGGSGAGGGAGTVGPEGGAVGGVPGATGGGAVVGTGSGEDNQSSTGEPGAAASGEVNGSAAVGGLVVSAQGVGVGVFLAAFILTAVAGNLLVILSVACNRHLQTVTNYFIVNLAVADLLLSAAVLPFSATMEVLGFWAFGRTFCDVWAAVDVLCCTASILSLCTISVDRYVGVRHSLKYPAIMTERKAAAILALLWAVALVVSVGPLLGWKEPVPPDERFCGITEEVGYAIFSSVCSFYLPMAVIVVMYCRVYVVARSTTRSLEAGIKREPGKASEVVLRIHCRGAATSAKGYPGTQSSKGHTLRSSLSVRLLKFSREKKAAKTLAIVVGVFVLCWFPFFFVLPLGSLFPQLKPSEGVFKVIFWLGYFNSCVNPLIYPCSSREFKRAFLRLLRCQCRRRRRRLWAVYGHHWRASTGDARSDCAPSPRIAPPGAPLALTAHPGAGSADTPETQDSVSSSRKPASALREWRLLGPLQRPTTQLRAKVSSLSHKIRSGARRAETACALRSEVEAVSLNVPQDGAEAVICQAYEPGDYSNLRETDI
T2 sequence (P43140 whole entry): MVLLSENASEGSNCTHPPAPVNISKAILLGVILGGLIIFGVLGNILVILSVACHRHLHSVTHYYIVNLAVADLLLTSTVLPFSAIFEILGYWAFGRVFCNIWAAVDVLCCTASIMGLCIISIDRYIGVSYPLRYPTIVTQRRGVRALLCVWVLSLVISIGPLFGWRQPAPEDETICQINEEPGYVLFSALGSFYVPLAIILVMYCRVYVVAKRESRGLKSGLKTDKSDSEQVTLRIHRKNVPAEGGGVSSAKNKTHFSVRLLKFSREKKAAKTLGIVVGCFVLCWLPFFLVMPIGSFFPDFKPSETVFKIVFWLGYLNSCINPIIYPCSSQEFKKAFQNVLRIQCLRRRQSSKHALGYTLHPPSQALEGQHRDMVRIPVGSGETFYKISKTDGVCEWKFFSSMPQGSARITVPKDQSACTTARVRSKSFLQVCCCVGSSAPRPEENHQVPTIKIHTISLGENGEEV

[4] = molecular target: T1, 5-hydroxytryptamine receptor 1A; test: Displacement of [3H]8-OH-DPAT from human 5HT1A receptor expressed in CHO cells at 1 uM; type: cell-based
[5] = molecular target: T2, Adrenergic receptor alpha-1; test: Displacement of [3H]prazosin from adrenergic alpha-1 receptor in rat cortical membranes; type: cell membranes, Membrane
[6] = molecular target: T1, 5-hydroxytryptamine receptor 1A; test: Agonist activity at human 5HT1A receptor expressed in CHO membrane assessed as stimulation of [35S]GTP-gamma-S binding; type: functional, cell membranes
[7] = molecular target: T3, 5-hydroxytryptamine receptor 1A (Homo sapiens) (UniProt P08908); test: Agonist activity at human 5HT1A receptor expressed in CHO membrane assessed as stimulation of [35S]GTPgammaS binding relative to 5HT; type: functional, cell membranes
T3 sequence (whole entry): T1 sequence (P08908 whole entry)

Chain of Sodium-dependent serotonin transporter (P31652 whole entry): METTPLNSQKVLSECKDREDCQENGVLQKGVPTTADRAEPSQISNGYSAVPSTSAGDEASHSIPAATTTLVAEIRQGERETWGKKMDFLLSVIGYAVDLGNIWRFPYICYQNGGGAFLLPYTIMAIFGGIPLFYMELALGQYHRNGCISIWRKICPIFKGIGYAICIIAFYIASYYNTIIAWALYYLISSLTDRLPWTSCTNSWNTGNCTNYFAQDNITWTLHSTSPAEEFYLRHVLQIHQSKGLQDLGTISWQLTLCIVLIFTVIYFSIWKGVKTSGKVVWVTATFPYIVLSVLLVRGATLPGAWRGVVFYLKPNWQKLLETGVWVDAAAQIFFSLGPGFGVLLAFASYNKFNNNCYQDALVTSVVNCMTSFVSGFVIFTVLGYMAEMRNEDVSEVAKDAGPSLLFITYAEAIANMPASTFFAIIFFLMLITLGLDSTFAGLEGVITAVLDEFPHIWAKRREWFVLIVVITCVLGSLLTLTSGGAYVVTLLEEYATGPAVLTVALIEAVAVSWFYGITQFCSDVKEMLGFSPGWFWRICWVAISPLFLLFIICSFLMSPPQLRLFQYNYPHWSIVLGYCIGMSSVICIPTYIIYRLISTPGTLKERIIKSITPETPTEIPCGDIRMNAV

Compound	Ki [1]	Ki [2]	Ki [5]	further results
CCCN(CCCc1c[nH]c2ccc(F)cc12)C1COc2ccc3ncccc3c2C1 (racemic)	16.9 nM	63.5 nM	–	% inhibition [3]: 18%
CCCN(CCCc1c[nH]c2ccc(F)cc12)C1COc2c(ccc3ncccc23)C1 (racemic)	12.4 nM	–	1234.3 nM	% inhibition [4]: 46%
Fc1ccc2[nH]cc(CCCCNC3COc4c(ccc5ncccc45)C3)c2c1 (racemic)	1.5 nM	–	–	% inhibition [4]: 47%; % inhibition [3]: 33%
Fc1ccc2[nH]cc(CCCNC3COc4ccc5ncccc5c4C3)c2c1 (racemic)	–	–	324.2 nM	–
CCCN(CCc1c[nH]c2ccc(F)cc12)C1COc2ccc3ncccc3c2C1 (racemic)	62.8 nM	–	711.2 nM	–
CCCN(CCCCc1c[nH]c2ccc(F)cc12)C1COc2c(ccc3ncccc23)C1 (racemic)	–	–	–	% inhibition [4]: 21%; % inhibition [3]: 19%
Fc1ccc2[nH]cc(CCCNC3COc4c(ccc5ncccc45)C3)c2c1 (racemic)	2.6 nM	105 nM	489.5 nM	–
COc1cccc2c1CC(NCCCc1c[nH]c3ccc(F)cc13)CO2 (racemic)	9.2 nM	70.4 nM	772.5 nM	–
Fc1ccc2[nH]cc(CCNC3COc4ccc5ncccc5c4C3)c2c1 (racemic)	30.5 nM	–	1078.7 nM	% inhibition [4]: 10%
CCCN(CCCc1c[nH]c2ccc(F)cc12)C1COc2ccc3ncccc3c2C1 (single isomer, unassigned; (+)) [listing 1 of 2 here]	19.8 nM	58 nM	–	% inhibition [3]: 38%; EC50 [6]: 301 nM
Fc1ccc2[nH]cc(CCCNC3COc4c(ccc5ncccc45)C3)c2c1 (single isomer, unassigned; (+)) [listing 1 of 2 here]	3 nM	392 nM	623.7 nM	EC50 [6]: 332 nM
CCCN(CCCc1c[nH]c2ccc(F)cc12)C1COc2ccc3ncccc3c2C1 (single isomer, unassigned; (+)) [listing 2 of 2 here]	–	–	–	Emax [7]: 100%
Fc1ccc2[nH]cc(CCCNC3COc4c(ccc5ncccc45)C3)c2c1 (single isomer, unassigned; (+)) [listing 2 of 2 here]	–	–	–	Emax [7]: 75%
Fc1ccc2[nH]cc(CCCNC3COc4ccc5ncccc5c4C3)c2c1 (single isomer, unassigned; (-)) [listing 1 of 2 here]	–	314 nM	221 nM	EC50 [6]: 116 nM
Fc1ccc2[nH]cc(CCCNC3COc4c(ccc5ncccc45)C3)c2c1 (single isomer, unassigned; (-)) [listing 1 of 2 here]	1.2 nM	67.8 nM	387.7 nM	EC50 [6]: 172 nM
Fc1ccc2[nH]cc(CCCNC3COc4c(ccc5ncccc45)C3)c2c1 (single isomer, unassigned; (-)) [listing 2 of 2 here]	–	–	–	Emax [7]: 100%
Fc1ccc2[nH]cc(CCCNC3COc4ccc5ncccc5c4C3)c2c1 (single isomer, unassigned; (-)) [listing 2 of 2 here]	–	–	–	Emax [7]: 86%
Fc1ccc2[nH]cc(CCCNC3COc4ccc5ncccc5c4C3)c2c1 (stereo in doubt; (+)-5) [listing 1 of 2 here]	–	23.9 nM	590.8 nM	–
Fc1ccc2[nH]cc(CCCNC3COc4ccc5ncccc5c4C3)c2c1 (stereo in doubt; (+)-5) [listing 2 of 2 here]	–	–	–	Emax [7]: 100%
CCCN(CCCc1c[nH]c2ccc(F)cc12)C1COc2ccc3ncccc3c2C1 (stereo in doubt; (-)-6) [listing 1 of 2 here]	8.8 nM	–	–	% inhibition [3]: 31%
CCCN(CCCc1c[nH]c2ccc(F)cc12)C1COc2ccc3ncccc3c2C1 (stereo in doubt; (-)-6) [listing 2 of 2 here]	–	–	–	Emax [7]: 55%
